# According to publication PMC5522996, “Big conductance calcium‐activated potassium channel openers control spasticity without sedation” (British Journal of Pharmacology, 2017):
# Entries after “also recorded” stand apart in the source; their conditions may differ.
# Tests used:
# EDG6 = biological target: T1, EDG6 (Homo sapiens, UniProt O95977); test: Receptor binding profile of VSN16R; settings: 10µM VSN16R
# T1 construct: purchased Cerep; Chantest; DiscoveRx; Multispan; MDS Pharma Services
# [1] = tested on: primary porcine aorta endothelium; test: Patch clamp of primary pig aorta endothelium; type: cell-based
# CCKA = biological target: T2, CCKA (Homo sapiens, UniProt P32238); test: Receptor binding profile of VSN16R; settings: 10µM VSN16R
# T2 construct: purchased Cerep; Chantest; DiscoveRx; Multispan; MDS Pharma Services
# T2 sequence (P32238 whole entry): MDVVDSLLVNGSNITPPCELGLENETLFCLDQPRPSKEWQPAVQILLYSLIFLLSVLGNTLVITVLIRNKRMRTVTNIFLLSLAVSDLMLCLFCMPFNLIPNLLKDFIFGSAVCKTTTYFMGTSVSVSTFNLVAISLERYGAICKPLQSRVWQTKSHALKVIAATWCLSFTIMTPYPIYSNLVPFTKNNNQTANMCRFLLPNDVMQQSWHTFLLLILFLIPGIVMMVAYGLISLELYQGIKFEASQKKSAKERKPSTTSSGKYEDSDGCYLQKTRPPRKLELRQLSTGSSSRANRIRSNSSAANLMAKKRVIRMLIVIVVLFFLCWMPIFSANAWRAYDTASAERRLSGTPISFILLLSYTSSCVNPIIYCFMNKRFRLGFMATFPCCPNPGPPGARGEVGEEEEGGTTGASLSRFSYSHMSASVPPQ
# [2] = Plasma levels in toxicological studies, dogs; type: in vivo; settings: both sexes, Beagle, dog, po, 30 min following 50 mg·kg^−1 p.o., read-out: VSN16R detected in plasma
# Procedure: Twenty‐eight day toxicology in rats and dogs for Investigational New Drug filing was performed by Charles Rivers (UK). Reproductive toxicology in rabbits was performed by Charles Rivers (Canada). Pharmacokinetic and/or toxicological doses ranged from 5 to 1000 mg·kg^−1 p.o. in Sprague Dawley male and female rats (n = 6‐26 per group), 50–200 mg·kg^−1 p.o. in male and female Beagle dogs (n = 6 per group) and 100–750 mg·kg^−1 p.o. in female New Zealand white rabbits (n = 9 per group). Results are expressed as mean ± SD.
# The stability of compounds when subjected to hepatic and plasma degradation was assessed in vitro by Inpharmatica, Cambridge, UK. […] Samples were centrifuged, and the resultant supernatant analysed for parent compound. The mass responses at baseline were taken as the 100% reference values against which the disappearance of the compound was measured. […] Half‐life values were calculated from the slope of these plots. Hepatocyte metabolism was assessed by Cyprotex, Macclesfield, and 10 μM VSN16R was incubated with primary mouse, rat, monkey (Macaque) and human hepatocytes for 1 h, and the presence of metabolites was assessed using liquid […] mass spectroscopy. The stability of VSN16R was assessed in vivo by Inpharmatica, Cyprotex and Charles Rivers, Cambridge. […] Data are expressed as mean ± SEM. […]
# GPR12 = biological target: T3, GPR12 (Homo sapiens, UniProt P47775); test: Receptor binding profile of VSN16R; settings: 10µM VSN16R
# T3 construct: purchased Cerep; Chantest; DiscoveRx; Multispan; MDS Pharma Services
# T3 sequence (P47775 whole entry): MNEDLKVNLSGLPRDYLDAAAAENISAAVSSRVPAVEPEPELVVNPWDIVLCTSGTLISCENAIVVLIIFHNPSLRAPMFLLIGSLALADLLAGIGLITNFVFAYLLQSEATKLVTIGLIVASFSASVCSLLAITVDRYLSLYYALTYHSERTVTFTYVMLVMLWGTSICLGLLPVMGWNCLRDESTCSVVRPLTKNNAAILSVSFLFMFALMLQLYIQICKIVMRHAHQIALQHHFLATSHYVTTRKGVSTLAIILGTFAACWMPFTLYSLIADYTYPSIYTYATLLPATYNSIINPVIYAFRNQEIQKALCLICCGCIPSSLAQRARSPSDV
# β1 = biological target: T4, β1 (Homo sapiens, UniProt P08588); test: Receptor binding profile of VSN16R; settings: 10µM VSN16R
# T4 construct: purchased Cerep; Chantest; DiscoveRx; Multispan; MDS Pharma Services
# T4 sequence (P08588 whole entry): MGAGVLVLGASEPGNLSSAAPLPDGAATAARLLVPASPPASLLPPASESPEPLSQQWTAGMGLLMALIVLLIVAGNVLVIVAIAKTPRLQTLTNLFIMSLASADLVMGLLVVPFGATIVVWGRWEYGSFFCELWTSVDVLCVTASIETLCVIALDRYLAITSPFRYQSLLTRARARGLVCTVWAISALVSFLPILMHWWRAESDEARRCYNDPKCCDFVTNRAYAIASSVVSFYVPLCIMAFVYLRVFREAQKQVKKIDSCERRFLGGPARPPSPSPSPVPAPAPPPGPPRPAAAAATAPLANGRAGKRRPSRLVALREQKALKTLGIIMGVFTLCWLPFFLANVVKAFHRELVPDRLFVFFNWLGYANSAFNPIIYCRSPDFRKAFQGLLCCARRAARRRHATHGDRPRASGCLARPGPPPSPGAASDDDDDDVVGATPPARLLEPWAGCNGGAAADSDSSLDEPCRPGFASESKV
# [3] = tested on: Salmonella typhimurium and Escherichia coli strains; test: Standard Ames test (summary); type: cell-based
# Procedure: Strain of Organism Treatment Dose Revertants per plate
# First Mutation without Metabolic Stimulation
# Second Mutation without Metabolic Stimulation
# VSN16R was incubated at various concentrations with either TA1535, TA1537, TA98 and TA100 strains of Salmonella typhimurium, which carry mutations in genes involved in histidine synthesis, and WP2uvvA Escherichia coli. The bacteria are spread on agar plates with limiting histidine content and incubated for 48 h. The number of histidine gene negative to positive revertants was assessed in two experiments. The results represent the mean ± SD. n=3/group. This was performed by Charles
# M2 = biological target: T5, M2 (Homo sapiens, UniProt P08172); test: Receptor binding profile of VSN16R; settings: 10µM VSN16R
# T5 construct: purchased Cerep; Chantest; DiscoveRx; Multispan; MDS Pharma Services
# T5 sequence (P08172 whole entry): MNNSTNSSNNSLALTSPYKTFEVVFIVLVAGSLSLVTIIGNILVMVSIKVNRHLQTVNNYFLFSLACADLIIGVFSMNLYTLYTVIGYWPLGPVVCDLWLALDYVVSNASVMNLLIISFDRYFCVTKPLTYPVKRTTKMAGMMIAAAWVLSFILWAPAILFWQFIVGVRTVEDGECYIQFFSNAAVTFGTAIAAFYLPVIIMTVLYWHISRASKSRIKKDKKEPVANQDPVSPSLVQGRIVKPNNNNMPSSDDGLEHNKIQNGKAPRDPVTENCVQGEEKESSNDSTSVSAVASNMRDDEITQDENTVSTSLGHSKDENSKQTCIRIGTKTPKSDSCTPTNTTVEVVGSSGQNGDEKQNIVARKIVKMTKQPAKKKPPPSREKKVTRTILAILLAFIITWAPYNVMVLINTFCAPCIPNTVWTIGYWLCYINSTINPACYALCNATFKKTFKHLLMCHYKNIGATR
# GPR35 = biological target: T6, GPR35 (Homo sapiens, UniProt Q9HC97); test: Receptor binding profile of VSN16R; settings: 10µM VSN16R
# T6 construct: purchased Cerep; Chantest; DiscoveRx; Multispan; MDS Pharma Services
# T6 sequence (Q9HC97 whole entry): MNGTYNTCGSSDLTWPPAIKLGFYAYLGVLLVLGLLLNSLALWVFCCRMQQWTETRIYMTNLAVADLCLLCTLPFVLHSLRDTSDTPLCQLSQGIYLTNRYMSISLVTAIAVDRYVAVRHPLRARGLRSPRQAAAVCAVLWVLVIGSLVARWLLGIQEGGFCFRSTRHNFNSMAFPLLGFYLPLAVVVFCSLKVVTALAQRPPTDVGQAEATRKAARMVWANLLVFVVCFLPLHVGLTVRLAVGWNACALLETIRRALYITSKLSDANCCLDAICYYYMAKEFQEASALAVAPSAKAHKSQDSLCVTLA
# EDG5 = biological target: T7, EDG5 (Homo sapiens, UniProt O95136); test: Receptor binding profile of VSN16R; settings: 10µM VSN16R
# T7 construct: purchased Cerep; Chantest; DiscoveRx; Multispan; MDS Pharma Services
# T7 sequence (O95136 whole entry): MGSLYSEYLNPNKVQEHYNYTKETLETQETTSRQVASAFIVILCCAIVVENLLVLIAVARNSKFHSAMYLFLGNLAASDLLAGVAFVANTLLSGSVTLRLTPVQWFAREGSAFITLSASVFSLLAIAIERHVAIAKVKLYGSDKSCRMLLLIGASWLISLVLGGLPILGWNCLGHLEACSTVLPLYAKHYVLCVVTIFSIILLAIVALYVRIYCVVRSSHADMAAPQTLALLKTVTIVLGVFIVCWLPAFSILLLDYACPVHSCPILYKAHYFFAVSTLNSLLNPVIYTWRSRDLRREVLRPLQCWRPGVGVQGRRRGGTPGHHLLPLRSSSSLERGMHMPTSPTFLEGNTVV
# GPR55‐deficient ABH mice = test: Spasticity in GPR55‐deficient mice; type: in vivo, mouse; settings: 10 mg·kg^−1 i.v.
# T1 sequence (O95977 whole entry): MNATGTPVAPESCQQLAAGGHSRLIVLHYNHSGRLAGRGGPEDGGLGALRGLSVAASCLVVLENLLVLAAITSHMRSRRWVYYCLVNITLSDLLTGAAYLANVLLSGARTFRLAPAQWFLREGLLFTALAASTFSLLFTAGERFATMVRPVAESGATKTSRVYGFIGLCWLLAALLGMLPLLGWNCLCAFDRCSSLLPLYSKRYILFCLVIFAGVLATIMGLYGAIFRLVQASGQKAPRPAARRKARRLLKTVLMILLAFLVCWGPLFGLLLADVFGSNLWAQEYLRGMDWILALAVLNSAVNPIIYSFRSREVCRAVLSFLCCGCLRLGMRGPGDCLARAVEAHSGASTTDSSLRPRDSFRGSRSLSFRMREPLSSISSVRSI
smiles,measurement,setting,value
C[C@H](CO)NC(=O)c1cccc(/C=C\CCCC(=O)N(C)C)c1 [VSN16R],Activity,EDG6,Negligible Activity
same,Effect on primary porcine aorta endothelium,[1],do not respond; also recorded: had no effects
same,Activity,CCKA,Negligible Activity
same,concentration at 30 min,[2],82 µM
same,Activity,GPR12,Negligible Activity
same,Activity,β1,Negligible Activity
same,Mutagenesis in a standard Ames test,[3],no evidence of mutagenesis
same,Activity,M2,Negligible Activity
same,Activity,GPR35,Negligible Activity
same,Activity,EDG5,Negligible Activity
same,Inhibition of spasticity,GPR55‐deficient ABH mice,continued to inhibit spasticity
